In test [1] the test system is Mus musculus. Put plainly: Effect on weight variation in Ehrlich carcinoma bearing Swiss Albino mice 9 days post dose administered ip. Format: functional.
Test [2] relates to Mus musculus. Put plainly: Median survival time in Ehrlich carcinoma bearing Swiss Albino mice 9 days post dose administered ip. Format: functional.
The subject of test [3] is Ehrlich. Put plainly: Cytotoxicity against Ehrlich ascites carcinoma cells at 250 ug/ml. The format is functional, Mus musculus.
Test [4] relates to Mus musculus. Kind of test: Increase in life span in Ehrlich carcinoma bearing Swiss Albino mice 9 days post dose administered ip. Format: functional.
The test system of test [5] is Ehrlich. Kind of test: Cytotoxicity against Ehrlich ascites carcinoma cells at 125 ug/ml. The format is functional, Mus musculus.
Test [6] deals with Ehrlich. Put plainly: Cytotoxicity against Ehrlich ascites carcinoma cells at 500 ug/ml. The format is functional, Mus musculus.
The test system of test [7] is Mus musculus. Put plainly: Increase in life span in Ehrlich carcinoma bearing Swiss Albino mice 9 days post dose at 3.5 mg/kg, ip. Format: functional, organism-based. More on the design: dose 3.5 mg/kg.
The test system of test [8] is Mus musculus. Kind of test: Effect on weight variation in Ehrlich carcinoma bearing Swiss Albino mice 9 days post dose at 3.5 mg/kg, ip. The format is functional, organism-based. Details: dose 3.5 mg/kg.
The subject of test [9] is Mus musculus. Kind of test: Median survival time in Ehrlich carcinoma bearing Swiss Albino mice 9 days post dose at 3.5 mg/kg, ip. The format is functional, organism-based. More on the design: dose 3.5 mg/kg.

Among the data in ChEMBL document CHEMBL1138983, “Design, synthesis, and evaluation of novel 6-chloro-/fluorochromone derivatives as potential topoisomerase inhibitor anticancer agents” (2006) are Activity and MST values, retold here.

In the case of `O=Cc1c(N2CCOCC2)oc2cc(N3CCOCC3)c(F)cc2c1=O`, the Activity was -15.89% in the test with Mus musculus [1]; 0% in the test on Ehrlich [3]; 16.9% with Mus musculus [4]; 0% with Ehrlich [5]; 70% with Ehrlich [6]. In the test with Mus musculus [2], this molecule returned an MST of 11.14 days.

Take CISPLATIN: the Activity is 75.4% in the test on Mus musculus [7] and -17.3% in the test with Mus musculus [8]. The molecule further yielded an MST in the test with Mus musculus [9] of 17.3 days.

As for `O=Cc1c(N2CCCCC2)oc2cc(N3CCCCC3)c(F)cc2c1=O`, the Activity is -9.5% with Mus musculus [1]; 100% in the test on Ehrlich [3]; 17.9% in the test with Mus musculus [4]; 100% in the test with Ehrlich [5]; 100% in the test with Ehrlich [6]. In the test on Mus musculus [2], this molecule registered an MST of 11.6 days.

For the molecule `O=Cc1c(N2CCCCC2)oc2ccc(Cl)cc2c1=O`, the Activity in the test on Ehrlich [3], in the test with Ehrlich [5] and in the test on Ehrlich [6] was 100% each time.

With `O=Cc1c(N2CCCC2)oc2ccc(Cl)cc2c1=O`, the Activity in the test with Ehrlich [3] was found to be 100%; with Ehrlich [5] it was 90%; in the test on Ehrlich [6], 100%.

In the case of `O=Cc1c(N2CCOCC2)oc2ccc(Cl)cc2c1=O`, the Activity in the test with Mus musculus [1] was -16.81%; in the test with Ehrlich [3] it was 100%; in the test on Mus musculus [4], 23.1%; in the test on Ehrlich [5], 60%; in the test with Ehrlich [6] it was 100%. The same molecule registered an MST with Mus musculus [2] of 12 days.

Consider `CN1CCN(c2cc3oc(N4CCN(C)CC4)c(C=O)c(=O)c3cc2F)CC1`, for which the Activity with Ehrlich [3] is 0%; in the test with Ehrlich [5], 0%; with Ehrlich [6] it was 20%.

Take `CN1CCN(c2oc3ccc(Cl)cc3c(=O)c2C=O)CC1`: the Activity stood at 60% in the test with Ehrlich [3], 50% in the test on Ehrlich [5] and 60% with Ehrlich [6].
